Patent US5223485A, “Anaphylatoxin-receptor ligands” (Abbott Laboratories, priority 1991, dated 1993)
Bridge positions count the residues as written; N and C are the ends. Square brackets hold non-standard residues; d marks the D form. Peptide text beside a SMILES is read from it. * marks the point of attachment. 2Nal = N[C@@H](Cc1ccc2ccccc2c1)C(=O)O; NEtPhe = CCN[C@@H](Cc1ccccc1)C(=O)O; Cha = N[C@@H](CC1CCCCC1)C(=O)O; dPen = CC(C)(S)[C@@H](N)C(=O)O; dNMeA = CN[C@H](C)C(=O)O; Bz = O=C(c1ccccc1)*; Ethyl(2-NH2) = NCC*; For = O=C*

Target: T1, C5a Receptor (Homo sapiens, UniProt P21730)
T1 construct: 2.5-25 μg/mL of purified PMNL membrane fragments; from tissue; host or cells: polymorphonuclear leukocyte (PMNL) membrane fragments
T1 sequence (P21730 1-350): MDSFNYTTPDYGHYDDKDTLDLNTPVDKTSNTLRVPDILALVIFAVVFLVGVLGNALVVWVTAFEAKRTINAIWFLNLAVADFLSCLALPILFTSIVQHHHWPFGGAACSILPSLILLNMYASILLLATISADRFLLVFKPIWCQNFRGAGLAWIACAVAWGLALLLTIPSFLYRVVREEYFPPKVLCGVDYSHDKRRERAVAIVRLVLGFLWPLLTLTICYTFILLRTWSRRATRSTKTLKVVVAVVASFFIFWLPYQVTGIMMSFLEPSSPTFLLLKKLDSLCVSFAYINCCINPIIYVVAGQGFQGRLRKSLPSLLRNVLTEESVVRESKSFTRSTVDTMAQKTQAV
Assay: Anaphylatoxin receptor binding Ki determination: inhibition of 125I-C5a binding to PMNL membrane fragments
Details: 0.03-1 nM 125I-C5a, 2.5-25 μg/mL purified PMNL membrane fragments, filtration; read-out: In vitro C5a Receptor Binding Potency Ki
Method: Specific inhibition of C5a binding activity of representative compounds of the present invention was measured using 0.03-1 nM ^125 I-C5a with 2.5-25 μg/mL of purified PMNL membrane fragments (Borregaard, N.; Heiple, J. M.; Simons, E. R.; and Clark, R. A. J. Cell. Biol. 1983, 97, 52-61.). Free and membrane-bound ligand were separated by filtration.

Compound	Ki
CC(C)C[C@H](NC(=O)[C@H](CC1CCCCC1)NC(=O)[C@H](CC1CCCCC1)NC(=O)[C@H](C)NC(=O)[C@H](CSCCN)NC(=O)[C@@H](N)Cc1ccccc1)C(=O)N[C@H](C)C(=O)N[C@@H](CCCNC(=N)N)C(=O)O [Example 348, H-Phenylalanyl-(S-2-Aminoethyl)Cysteinyl-Alanyl-{(2S)-2-Amino-3-cyclohexylpropanoyl}-{(2S)-2-Amino-3-cyclohexylpropanoyl}-Leucyl-DAlanyl-Arginyl-OH] (H-FC(Ethyl(2-NH2))A[Cha][Cha]L[dA]R-OH)	140 nM
CC(=O)N[C@@H](Cc1ccccc1)C(=O)N[C@@H](CCCCN)C(=O)N[C@@H](C)C(=O)N[C@@H](CC1CCCCC1)C(=O)N[C@@H](C)C(=O)N[C@@H](CC(C)C)C(=O)N[C@H](C)C(=O)N[C@@H](Cc1ccc(O)cc1)C(=O)O [Example 305, Ac-Phenylalanyl-Lysyl-Alanyl-{(2S)-2-Amino-3-cyclohexylpropanoyl}-Alanyl-Leucyl-DAlanyl-Tyrosyl-OH] (Ac-FKA[Cha]AL[dA]Y-OH)	170 nM
CC(C)C[C@H](NC(=O)[C@H](CC1CCCCC1)NC(=O)[C@H](CC1CCCCC1)NC(=O)[C@H](C)NC(=O)[C@H](CCCCN)NC(=O)[C@@H](N)Cc1ccccc1)C(=O)N[C@H](C)C(=O)N[C@@H](CCCNC(=N)N)C(=O)O [Example 2, H-Phenylalanyl-Lysyl-Alanyl-{(2S)-2-Amino-3-cyclohexylpropanoyl}-{(2S)-2-Amino-3-cyclohexylpropanoyl}-Leucyl-DAlanyl-Arginyl-OH] (H-FKA[Cha][Cha]L[dA]R-OH)	98 nM
CC(C)C[C@@H]1NC(=O)[C@H](CC2CCCCC2)NC(=O)[C@H](CC2CCCCC2)NC(=O)[C@H](C)NC(=O)[C@H](CCCCN)NC(=O)[C@H](NC(=O)c2ccccc2)C(C)(C)SSC[C@H](C(=O)N[C@@H](CCCNC(=N)N)C(=O)O)NC1=O [Example 279, Benzoyl-DPenicillaminyl*-Lysyl-Alanyl-{(2S)-2-Amino-3-cyclohexylpropanoyl)-{(2S)-2-Amino-3-cyclohexylpropanoyl}-Leucyl-DCysteinyl*-Arginyl-OH] (Bz-[dPen]KA[Cha][Cha]L[dC]R-OH; disulfide 1-7)	4000 nM
CC[C@H](C)[C@H](N)C(=O)N[C@@H](CO)C(=O)N[C@@H](Cc1ccccc1)C(=O)N[C@@H](CCCCN)C(=O)N[C@@H](CC(=O)O)C(=O)N[C@@H](CC1CCCCC1)C(=O)N[C@@H](CC1CCCCC1)C(=O)N[C@@H](CC(C)C)C(=O)N[C@H](C)C(=O)N[C@@H](CCCNC(=N)N)C(=O)O [Example 111, H-Isoleucyl-Seryl-Phenylalanyl-Lysyl-Aspartyl-{(2S)-2-Amino-3-cyclohexylpropanoyl}-{(2S)-2-Amino-3-cyclohexylpropanoyl}-Leucyl-DAlanyl-Arginyl-OH] (H-ISFKD[Cha][Cha]L[dA]R-OH)	650 nM
CSCC[C@H](NC(=O)[C@H](CC(=O)O)NC(=O)[C@H](CCCCN)NC(=O)[C@@H](N)Cc1ccccc1)C(=O)N[C@@H](CCCNC(=N)N)C(=O)N[C@@H](CC(C)C)C(=O)NCC(=O)N[C@@H](CCCNC(=N)N)C(=O)O [Example 424, H-Phenylalanyl-Lysyl-Aspartyl-Methionyl-Arginyl-Leucyl-Glycyl-Arginyl-OH] (H-FKDMRLGR-OH)	480 nM
CC(C)C[C@H](NC(=O)[C@H](CC1CCCCC1)NC(=O)[C@H](Cc1c[nH]c2ccccc12)NC(=O)[C@H](C)NC(=O)[C@H](CCCCN)NC(=O)[C@@H](N)Cc1ccccc1)C(=O)N[C@H](C)C(=O)N[C@@H](CCCNC(=N)N)C(=O)O [Example 245, H-Phenylalanyl-Lysyl-Alanyl-Tryptophyl-{(2S)-2-Amino-3-cyclohexylpropanoyl}-Leucyl-DAlanyl-Arginyl-OH] (H-FKAW[Cha]L[dA]R-OH)	52 nM
Ac-Histidyl-Lysyl-Aspartyl-{(2S)-2-Amino-3-cyclohexylpropanoyl}-{(2S)-2-Amino-3-cyclohexylpropanoyl}-Leucyl-Pipecolyl(±)-Arginyl-OH [Example 13]	850 nM
CCCC(C(=O)N[C@H](C)C(=O)N[C@@H](CCCNC(=N)N)C(=O)O)N1CCCC[C@H](NC(=O)[C@H](CC2CCCCC2)NC(=O)[C@H](Cc2c[nH]cn2)NC(=O)[C@H](CCCCN)NC(=O)[C@@H](N)Cc2ccccc2)C1=O (stereo partly drawn) [Example 150, H-Phenylalanyl-Lysyl-Histidyl-{(2S)-2-Amino-3-cyclohexylpropanoyl}-{(2'R/S,3S)-3-Amino-2-oxo-1-azepine-2'-pentanoyl}-DAlanyl-Arginyl-OH]	110 nM
CSCC[C@H](NC(=O)[C@H](CC(=O)O)NC(=O)[C@H](CCCCN)NC(=O)[C@@H](N)Cc1ccc2ccccc2c1)C(=O)N[C@@H](CCC(N)=O)C(=O)N[C@@H](CC(C)C)C(=O)NCC(=O)N[C@@H](CCCNC(=N)N)C(=O)O [Example 377, H-{3-(2'-Naphthyl)alanyl}-Lysyl-Aspartyl-Methionyl-Glutaminyl-Leucyl-Glycyl-Arginyl-OH] (H-[2Nal]KDMQLGR-OH)	1800 nM
CC(C)C[C@H](NC(=O)[C@H](CC1CCCCC1)NC(=O)[C@@H](C)NC(=O)[C@H](C)NC(=O)[C@H](CCCCN)NC(=O)[C@@H](N)Cc1ccccc1)C(=O)N[C@H](C)C(=O)N[C@@H](CCCNC(=N)N)C(=O)O [Example 247, H-Phenylalanyl-Lysyl-Alanyl-DAlanyl-{(2S)-2-Amino-3-cyclohexylpropanoyl}-Leucyl-DAlanyl-Arginyl-OH] (H-FKA[dA][Cha]L[dA]R-OH)	330 nM
CCN[C@@H](Cc1ccccc1)C(=O)N[C@@H](CCCCN)C(=O)N[C@@H](C)C(=O)N[C@@H](CC1CCCCC1)C(=O)N[C@@H](C)C(=O)N[C@@H](CC(C)C)C(=O)N(C)[C@H](C)C(=O)N[C@@H](CCCNC(=N)N)C(=O)O [Example 402, (N-Ethyl)Phenylalanyl-Lysyl-Alanyl-{(2S)-2-Amino-3-cyclohexylpropanoyl}-Alanyl-Leucyl-(N-Methyl)DAlanyl-Arginyl-OH] (H-[NEtPhe]KA[Cha]AL[dNMeA]R-OH)	11 nM
CC(C)C[C@H](NC(=O)CNC(=O)[C@H](CC1CCCCC1)NC(=O)[C@H](C)NC(=O)[C@H](CCCCN)NC(=O)[C@@H](N)Cc1ccccc1)C(=O)N[C@H](C)C(=O)N[C@@H](CCCNC(=N)N)C(=O)O [Example 165, H-Phenylalanyl-Lysyl-Alanyl-{(2S)-2-Amino-3-cyclohexylpropanoyl}-Glycyl-Leucyl-DAlanyl-Arginyl-OH] (H-FKA[Cha]GL[dA]R-OH)	42 nM
CC(C)C[C@H](NC(=O)[C@H](C)NC(=O)[C@H](C)NC(=O)[C@H](CCCCN)NC(=O)[C@@H](N)Cc1ccccc1)C(=O)N[C@@H](C)C(=O)N[C@H](C)C(=O)N[C@@H](CCCNC(=N)N)C(=O)O [Example 295, H-Phenylalanyl-Lysyl-Alanyl-Alanyl-Leucyl-Alanyl-DAlanyl-Arginyl-OH] (H-FKAALA[dA]R-OH)	3300 nM
C[C@H](NC(=O)[C@H](CCCCN)NC(=O)[C@@H](N)Cc1ccccc1)C(=O)N[C@@H](CC1CCCCC1)C(=O)N[C@@H](CC1CCCCC1)C(=O)N[C@H](C)C(=O)N[C@H](C)C(=O)N[C@@H](CCCNC(=N)N)C(=O)O [Example 202, H-Phenylalanyl-Lysyl-Alanyl-{(2S)-2-Amino-3-cyclohexylpropanoyl}-{(2S)-2-Amino-3-cyclohexylpropanoyl}-DAlanyl-DAlanyl-Arginyl-OH] (H-FKA[Cha][Cha][dA][dA]R-OH)	870 nM
CC(C)C[C@H](NC(=O)[C@H](CC1CCCCC1)NC(=O)[C@H](CC1CCCCC1)NC(=O)[C@H](C)NC(=O)[C@H](CCCCN)NC(=O)[C@@H](N)Cc1cn(C=O)c2ccccc12)C(=O)N[C@H](C)C(=O)N[C@@H](CCCNC(=N)N)C(=O)O [Example 338, H-Tryptophyl(N-formyl)-Lysyl-Alanyl-{(2S)-2-Amino-3-cyclohexylpropanoyl}-{(2S)-2-Amino-3-cyclohexylpropanoyl}-Leucyl-DAlanyl-Arginyl-OH] (H-W(For)KA[Cha][Cha]L[dA]R-OH)	500 nM
CC(C)C[C@H](NC(=O)[C@H](CC1CCCCC1)NC(=O)[C@H](CC1CCCCC1)NC(=O)[C@H](C)NC(=O)[C@H](CCCCN)NC(=O)[C@@H](N)Cc1ccccc1)C(=O)N[C@@H](C)C(=O)N[C@@H](CCCNC(=N)N)C(=O)O [Example 188, H-Phenylalanyl-Lysyl-Alanyl-{(2S)-2-Amino-3-cyclohexylpropanoyl}-{(2S)-2-Amino-3-cyclohexylpropanoyl}-Leucyl-Alanyl-Arginyl-OH] (H-FKA[Cha][Cha]LAR-OH)	210 nM
C[C@H](NC(=O)[C@H](CCCCN)NC(=O)[C@@H](N)Cc1ccccc1)C(=O)N[C@@H](CC1CCCCC1)C(=O)N[C@@H](CC1CCCCC1)C(=O)N[C@H](C(=O)N[C@H](C)C(=O)N[C@@H](CCCNC(=N)N)C(=O)O)[C@@H](C)O [Example 131, H-Phenylalanyl-Lysyl-Alanyl-{(2S)-2-Amino-3-cyclohexylpropanoyl}-{(2S)-2-Amino-3-cyclohexylpropanoyl}-Threonyl-DAlanyl-Arginyl-OH] (H-FKA[Cha][Cha]T[dA]R-OH)	170 nM
CC(C)C[C@H](NC(=O)[C@H](CC1CCCCC1)NC(=O)[C@@H](NC(=O)[C@H](C)NC(=O)[C@H](CCCCN)NC(=O)[C@@H](N)Cc1ccccc1)[C@@H](C)O)C(=O)N[C@H](C)C(=O)N[C@@H](CCCNC(=N)N)C(=O)O [Example 182, H-Phenylalanyl-Lysysl-Alanyl-Threonyl-{(2S)-2-Amino-3-cyclohexylpropanoyl}-Leucyl-DAlanyl-Arginyl-OH] (H-FKAT[Cha]L[dA]R-OH)	300 nM
